Laboratory results from patent publication EP1370276B1, “INTERCELLULAR COMMUNICATION FACILITATING COMPOUNDS AND THEIR MEDICAL USE” (Zealand Pharma A/S, priority 2001, dated 2002).

How the values were obtained:
CHO cells = test: In situ binding of [125I]AAP10 on intact CHO cells; details: overnight at 4° C
Experimental: CHO cells are seeded in 24-multi well dishes in a density of 7,900 cells/cm^2 (∼ 15,000 cells/well) and grown for 3 Days In Vitro (DIV) in 1 ml/well of F-12K Nutrient Mixture supplemented with 10% Foetal Calf Serum (FCS) and 1000 units penicillin/1000 µg streptomycin (pen/strep) in an atmosphere of 5% CO2 and 100% humidity at 37° C. The cell density has at that time increased to 295,000 cells/cm^2 (152 pgprot/cell ∼ 85 µgprot/well).
On the day of analysis cells are removed from the incubator and each well is washed twice with, depending on the experiment, either 2 ml pre-warmed (37 °C) or ice-cold (0 °C) D-PBS to remove serum. It is important to keep the period to a minimum during which cells are left without physiological solutions to avoid that they dry out during washing procedures. The cold washed cells are used directly for binding assays while the warm washed cells are used for experiments with glucose and oxygen deprivation.
The in situ binding is performed by a modified protocol based on the description by Koenig. […] Cells incubate overnight at 4° C to reach equilibrium. Each well, one at the time, is then rinsed rapidly with 2 x 1 ml D-PBS and left to dry.
0.25 ml of 0.5 % Triton-X-100 (v/v) is added to each well and cells left for at least 1 h to solubilize. The extract is transferred to counting vials, the wells rinsed with 0.25 ml water and the rinse extract added to the corresponding vials. The vials are counted in a γ-counter. Table 3. In situ binding, IC50 (nM).

[1] = tested on: cAMP formation in CHO cells; test: Inhibition of forskoline stimulated cAMP formation in CHO cells; type: cell-based; details: 10 µM forskoline, 20 min, cells pre-treated with glucose and oxygen deprivation
Experimental: CHO cells are seeded in 96-well microtiter plates in a density of 6,000 cells/cm^2 (∼ 2,000 cells/well) and grown for 4 days in vitro in 200 µl/well of growth media as described in the previous section.
On the day of analysis cells are removed from the incubator and washed twice with 200 µl pre-warmed (37°C) D-PBS (pH 7.2) to remove serum. Cells are incubated for 10 min in glucose free D-PBS and an N2-atmosphere as described in the previous section.
CHO cells are incubated at 37° C in D-PBS (pH 7.2) containing 6 mM glucose, 2.0 mM IBMX (phospodiesterase blocker), 10 µM forskoline (stimulates cAMP formation) and increasing concentrations of test peptide. The reaction is stopped after 20 min by addition of 20 µl 0.5 M HCl and left for at least 20 min at room temperature.
The content of cAMP is analysed by mixing 20 µl of the acid cell extract into FlashPlate™ wells (NEN assay kit SMP001) containing 180 µl [^12SI]cAMP tracer solution. FlashPlates™ are incubated overnight at 4° C and plate bound radioactivity counted in TopCount (Packard Instrument). Data are calculated as described in the previous section.

[2] = tested on: alkaline phosphatase (ALP) activity of human osteoblasts; test: Alkaline phosphatase assay in human osteoblasts; type: cell-based
Experimental: Human osteblast cells (hOB): Cells were isolated from human bone marrow obtained by puncture of the posterior iliac spine of healthy volunteers (aged 20-36): 10-15 ml marrow material was collected in 15 ml PBS+Ca,Mg (Life Technologies, Cat.No. 14040) with 100 U/ml Heparin (Sigma, Cat.No. H-3149). The mononuclear fraction of the marrow was isolated on a Lymphoprep gradient (Nycomed Pharma, Cat.No. 1001967), by centrifugation at 2200 rpm for 30 min. After harvesting, the mononuclear fraction was washed once with culture medium and centrifuged at 1800 rpm for 10 min. Subsequently cells were counted and plated in culture medium at 8x10^6 cells/100 mm dish. hOB medium (all reagents obtained from Life Technologies): MEM w/o Phenol Red w/ Glutamax (Cat.No. 041-93013) supplemented with 10% heat inactivated fetal calf serum (Cat.No. 10106) and 0.1% Penicillin/Streptomycin (Cat.No. 15140). Medium was changed the following day and the cells were cultured at 37°C in 5%CO2 with medium change every 7 days. After 3-4 weeks of culture the cells had reached 70% confluence. […]
• Day 1: Cells were plated in 96-well plates at a conc. of 8000 cells/well (hOB) or 3000 cells/well (ROS) in 200 µl normal culture medium. • Day 2: Medium was changed on the cells. • Day 4: (Day 3 for ROS): Cells were washed with 200 µl MEM, 0.1% BSA (Sigma, Cat.No. A-9418). […] Absorbance was measured using a plate reader at 405 nm.

human osteoblast = human osteoblast cultures and osteoblastic rat osteosarcoma cell lines; conference abstract; cited from earlier work

Substance: Ac-D-Tyr-D-Pro-D-4Hyp-Gly-D-Ala-Gly-NH2 [Compound 2]
- IC50 (CHO cells): 0.5 nM
- EC50 [1]: 6.2 nM
- ALP activity ([2]; 1 × 10^-13 to 1 × 10^-6, normal culture conditions, 4 days): increased ALP activity at most of the concentrations tested
- stimulation of ALP activity during hypoxia compared with normoxia ([2]; 5% O2, four days, 10^-11 to 10^-8 mol/l): about 15%
- hypoxia-induced decrease of dye transfer after Lucifer Yellow injections (human osteoblast): completely reversed
